Laboratory results published in article PMC4864567, “Characterization of the ATP-Dependent Lon-Like Protease in Methanobrevibacter smithii” (Archaea, 2016).

What was measured:
[1] = target: T1, Lon-like-Ms (Methanobrevibacter smithii, UniProt A5UP31); assay: fluorogenic peptide cleavage (MNA release); format: biochemical; details: ADP in place of ATP, with Mg2+; Glt-AAF-MNA, pH 8.0, 37 °C; called inhibitory, partial activity retained
T1 construct: gene Msm_1754
T1 sequence (A5UP31 1-682): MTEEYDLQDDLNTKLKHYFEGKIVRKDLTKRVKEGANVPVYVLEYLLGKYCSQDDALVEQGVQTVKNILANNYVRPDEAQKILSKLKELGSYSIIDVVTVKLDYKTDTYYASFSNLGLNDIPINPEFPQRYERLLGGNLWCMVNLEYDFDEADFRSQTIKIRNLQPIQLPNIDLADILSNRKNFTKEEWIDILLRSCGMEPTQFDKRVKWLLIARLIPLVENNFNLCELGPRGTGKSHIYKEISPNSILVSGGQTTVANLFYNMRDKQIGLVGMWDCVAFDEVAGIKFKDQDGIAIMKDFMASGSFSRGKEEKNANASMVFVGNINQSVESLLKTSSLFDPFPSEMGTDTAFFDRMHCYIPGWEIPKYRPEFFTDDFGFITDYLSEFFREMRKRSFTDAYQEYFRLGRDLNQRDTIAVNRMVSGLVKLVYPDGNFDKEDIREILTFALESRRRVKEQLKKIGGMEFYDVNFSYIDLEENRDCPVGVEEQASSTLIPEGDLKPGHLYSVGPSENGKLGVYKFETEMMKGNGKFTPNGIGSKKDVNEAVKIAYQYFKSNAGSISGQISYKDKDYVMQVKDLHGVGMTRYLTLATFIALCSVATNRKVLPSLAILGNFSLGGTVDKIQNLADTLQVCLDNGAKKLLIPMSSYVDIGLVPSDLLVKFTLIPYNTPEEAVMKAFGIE

[2] = target: T1, Lon-like-Ms; assay: fluorogenic peptide cleavage (MNA release); format: biochemical; details: 0.3 mM Glt-AAF-MNA, 10 mM MgCl2, pH 8.0, 37 °C; nucleotide required for activity, inhibitory at rising concentration; not a fitted IC50
Description: fluorogenic peptide cleavage (MNA release) on Lon-like-Ms | reaching a decrease by half at 1-mM ATP or AMP-PNP

SMILES	fluorogenic peptide cleavage (MNA release) [1]	concentration giving decrease by half [2]
Nc1ncnc2c1ncn2[C@@H]1O[C@H](COP(=O)(O)OP(=O)(O)O)[C@@H](O)[C@H]1O [ADP]	ADP, a potent inhibitor of Lon from E. coli, also inhibited the activity of Lon-like-Ms	
Nc1ncnc2c1ncn2[C@@H]1O[C@H](COP(=O)(O)OP(=O)(O)OP(=O)(O)O)[C@@H](O)[C@H]1O [ATP]		~ 1 mM
Nc1ncnc2c1ncn2[C@@H]1O[C@H](COP(=O)(O)OP(=O)(O)NP(=O)(O)O)[C@@H](O)[C@H]1O [5′-adenylyl imidodiphosphate]		~ 1 mM
